Among the test systems are CAKI-1 renal; HCT-116 colon; HOP-92 NSCLC; NCI-H226 lung; NCI-H23 lung; RPMI-8226 leukemia; SK-MEL-2 melanoma; SK-MEL-28 melanoma; SK-OV-3 ovarian; UACC-62 melanoma.
What all share (assay): inhibition of tumour cell growth, NCI panel, 48 h

Molecules are shown by their SMILES.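 1) Cells in 96-well plates. 2) Compound, 48 h, 5 concentrations. 3) Linear interpolation between surrounding doses. 4) Unreached endpoint = highest concentration. GI50 is the concentration that inhibits growth by half. TGI marks complete inhibition of growth.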

Ten molecules from PubChem BioAssay (NCI) can be followed below.

For `Nc1ncn([C@@H]2O[C@H](CO)[C@@H](O)[C@H]2O)c(=O)n1`, the GI50 is 0.275 µM with CAKI-1 renal; 0.322 µM with HCT-116 colon; 3.06 µM in the test on HOP-92 NSCLC; 1.39 µM in the test with NCI-H226 lung; 3.91 µM in the test with NCI-H23 lung; 0.669 µM with RPMI-8226 leukemia. Further, the GI50 is 0.612 µM in the test with SK-MEL-2 melanoma, 2.68 µM in the test with SK-MEL-28 melanoma, 1.14 µM in the test with SK-OV-3 ovarian and 0.658 µM with UACC-62 melanoma. In addition, the TGI with CAKI-1 renal was 3.25 µM; with HCT-116 colon, 1.71 µM; with HOP-92 NSCLC, 44.5 µM; in the test on NCI-H226 lung it was 9.63 µM; with NCI-H23 lung, 41.1 µM; in the test on RPMI-8226 leukemia, greater than 100 µM. Moreover, the TGI in the test with SK-MEL-2 melanoma worked out at 3.83 µM; with SK-MEL-28 melanoma it was 11.1 µM; in the test with SK-OV-3 ovarian, 5.46 µM; in the test on UACC-62 melanoma it was 8.67 µM.

Regarding `Cc1nc(Nc2ccc(Cl)cc2)sc1C(=O)NNC(=S)NN`, the TGI in the test with CAKI-1 renal was 44.8 µM; with HCT-116 colon, 30.8 µM; in the test with HOP-92 NSCLC it was 43.2 µM; in the test on NCI-H226 lung it was 38 µM; in the test with NCI-H23 lung, 33.4 µM; with RPMI-8226 leukemia, 79.5 µM. The TGI in the test with SK-MEL-2 melanoma stood at 33.4 µM; in the test on SK-MEL-28 melanoma, 35 µM; in the test with SK-OV-3 ovarian, 54 µM; in the test with UACC-62 melanoma it was 33.7 µM.

For `CNCCOC(=O)/C=C1\CC[C@H]2[C@@H]([C@@H](O)C(=O)[C@@H]3[C@]2(C)CC[C@H](O)[C@]3(C)C(=O)OC)[C@H]1C`, the GI50 in the test on CAKI-1 renal is 0.315 µM; in the test on HCT-116 colon, 0.294 µM; with HOP-92 NSCLC, 0.527 µM; in the test on NCI-H226 lung it was 0.566 µM; in the test on NCI-H23 lung, 0.245 µM; in the test on RPMI-8226 leukemia, 0.454 µM. Besides, the GI50 is 1.79 µM in the test with SK-MEL-2 melanoma, 1.06 µM in the test on SK-MEL-28 melanoma, 0.392 µM in the test with SK-OV-3 ovarian and 1.41 µM with UACC-62 melanoma. For the same molecule, the TGI in the test with CAKI-1 renal is 1.08 µM; in the test with HCT-116 colon, 1.03 µM; in the test on HOP-92 NSCLC it was 3.52 µM; in the test with NCI-H226 lung it was 1.99 µM; in the test with NCI-H23 lung, 0.644 µM; in the test on RPMI-8226 leukemia, 2.65 µM. Further, the TGI was determined as 4.57 µM in the test on SK-MEL-2 melanoma, 2.61 µM in the test on SK-MEL-28 melanoma, 1.36 µM in the test on SK-OV-3 ovarian and 2.93 µM in the test with UACC-62 melanoma.

In the case of `NNC(=O)CNc1cccc(Br)c1`, the TGI in the test on CAKI-1 renal, in the test with HCT-116 colon, with HOP-92 NSCLC, in the test with NCI-H226 lung, in the test with NCI-H23 lung and in the test on RPMI-8226 leukemia was greater than 100 µM in each case. For the same molecule, the TGI with SK-MEL-2 melanoma, in the test with SK-MEL-28 melanoma, in the test on SK-OV-3 ovarian and with UACC-62 melanoma was greater than 100 µM in each case.

In the case of `C/C(CC(=O)Nc1ccc(C)c(C)c1)=N\N(c1ccccc1)c1ccccc1`, the TGI in the test on CAKI-1 renal, in the test on HCT-116 colon, in the test on HOP-92 NSCLC, in the test on NCI-H226 lung, in the test with NCI-H23 lung and in the test on RPMI-8226 leukemia was greater than 100 µM throughout. In addition, the TGI with SK-MEL-2 melanoma is greater than 100 µM; with SK-MEL-28 melanoma it was greater than 100 µM; in the test on SK-OV-3 ovarian it was greater than 100 µM; in the test on UACC-62 melanoma, 57.4 µM.

Regarding `Cc1nc(N)sc1N=Nc1ccccc1Br`, the TGI is 81.8 µM in the test with CAKI-1 renal; 55.1 µM with HCT-116 colon; 46.1 µM in the test on HOP-92 NSCLC; 68.2 µM with NCI-H226 lung; 56.3 µM with NCI-H23 lung; greater than 100 µM with RPMI-8226 leukemia. For the same molecule, the TGI with SK-MEL-2 melanoma is 55.2 µM; with SK-MEL-28 melanoma it was greater than 88.1 µM; in the test with SK-OV-3 ovarian, greater than 100 µM; with UACC-62 melanoma it was 45.4 µM.

Turning to `Cc1c(N(C)C)ccc2c(=O)c3cccc(CC(=O)O)c3oc12`, the TGI in the test with CAKI-1 renal, with HCT-116 colon, with HOP-92 NSCLC, in the test with NCI-H226 lung, in the test on NCI-H23 lung and with RPMI-8226 leukemia was greater than 100 µM throughout. Further, the TGI with SK-MEL-2 melanoma, with SK-MEL-28 melanoma, in the test with SK-OV-3 ovarian and in the test with UACC-62 melanoma was greater than 100 µM in each case.

Take `CN(C)C1CCN(C(=O)c2ccc(NC(=O)Nc3ccc(-c4nc(N5CCOCC5)c5cccn5n4)cc3)cc2)CC1`: the GI50 was 3.39 µM in the test on CAKI-1 renal; 0.0705 µM in the test on HCT-116 colon; less than 0.015 µM in the test on HOP-92 NSCLC; 0.0435 µM in the test on NCI-H226 lung; 0.102 µM in the test on NCI-H23 lung; 0.275 µM with RPMI-8226 leukemia. Besides, the GI50 is 0.0833 µM in the test on SK-MEL-2 melanoma, 0.0724 µM in the test with SK-MEL-28 melanoma, 0.0377 µM in the test with SK-OV-3 ovarian and 0.0444 µM in the test with UACC-62 melanoma. In addition, the TGI in the test with CAKI-1 renal came to 20.8 µM; with HCT-116 colon, 20 µM; with HOP-92 NSCLC, 0.102 µM; in the test with NCI-H226 lung it was 2.99 µM; in the test with NCI-H23 lung, 17.7 µM; in the test on RPMI-8226 leukemia, 1.88 µM. Also, the TGI in the test with SK-MEL-2 melanoma came out at 1.43 µM; with SK-MEL-28 melanoma it was 0.849 µM; with SK-OV-3 ovarian it was 0.252 µM; with UACC-62 melanoma it was 0.287 µM.

Turning to `CN(C)CC[C@H](CSc1ccccc1)Nc1ccc(S(=O)(=O)NC(=O)c2ccc(N3CCN(Cc4ccccc4-c4ccc(Cl)cc4)CC3)cc2)cc1[N+](=O)[O-]`, the GI50 with CAKI-1 renal was 6.71 µM; with HCT-116 colon, 2.93 µM; in the test with HOP-92 NSCLC, 0.186 µM; in the test with NCI-H226 lung, 4.59 µM; in the test on NCI-H23 lung it was 9.07 µM; with RPMI-8226 leukemia, 2.56 µM. The GI50 in the test with SK-MEL-2 melanoma is 1.88 µM; with SK-MEL-28 melanoma, 5.73 µM; in the test with SK-OV-3 ovarian it was 4.58 µM; in the test with UACC-62 melanoma, 3.51 µM. Also, the TGI with CAKI-1 renal was greater than 100 µM; in the test with HCT-116 colon it was greater than 27.3 µM; in the test with HOP-92 NSCLC it was 0.833 µM; in the test with NCI-H226 lung it was 17.4 µM; in the test on NCI-H23 lung it was greater than 100 µM; with RPMI-8226 leukemia, greater than 100 µM. Moreover, the TGI was 4.94 µM in the test on SK-MEL-2 melanoma, greater than 100 µM in the test on SK-MEL-28 melanoma, 16.9 µM in the test with SK-OV-3 ovarian and 20 µM in the test on UACC-62 melanoma.

For `O=C(Cc1ccc(F)c(Cl)c1)Nc1cc(C2(C(F)(F)F)CC2)nn1CC1CCCCC1`, the GI50 in the test with CAKI-1 renal is 2.93 µM; with HCT-116 colon, 3.88 µM; in the test with HOP-92 NSCLC, 2.69 µM; with NCI-H226 lung it was 4.32 µM; in the test with NCI-H23 lung, 3.52 µM; in the test on RPMI-8226 leukemia, 3.06 µM. Moreover, the GI50 is 3.99 µM in the test on SK-MEL-2 melanoma, 4.82 µM with SK-MEL-28 melanoma, 3.24 µM in the test with SK-OV-3 ovarian and 3.37 µM in the test with UACC-62 melanoma. The TGI in the test on CAKI-1 renal is 8.79 µM; in the test on HCT-116 colon it was greater than 15 µM; in the test on HOP-92 NSCLC, 10.7 µM; in the test on NCI-H226 lung, greater than 15 µM; in the test with NCI-H23 lung, 12 µM; with RPMI-8226 leukemia, 9.43 µM. The TGI in the test with SK-MEL-2 melanoma was 13.3 µM; in the test on SK-MEL-28 melanoma, greater than 15 µM; in the test with SK-OV-3 ovarian, 11 µM; with UACC-62 melanoma it was 11.5 µM.
